Columns and labels:
[1] = test system: phosphorylation of Akt at serine 473; assay: Western blot of Akt phosphorylation (S473) in RPEM cells stimulated with vitreous or PDGF; assay type: cell-based, human
Protocol: (§1) 1B. After growth factor-deprivation, the RPEM cells were pretreated with idelalisib at indicated concentrations, or its vehicle for 30 minutes, and then treated with normal rabbit vitreous diluted (1:2) in DMEM (RV), V: vehicle (0.1% dimethyl sulfoxide) or PDGF-B (10 ng/ml). After the treatment for 30 minutes at 37° C., their lysates were subjected to a western blot analysis using the indicated antibodies. This is representative of three independent experiments. Cells grown to 90% confluence in wells of 24-well plates were serum starved for 24 hours, and then treated with appropriated agents. After two washes with ice-cold phosphate buffered saline (PBS), the cells were lysed in 1× sample buffer diluted with protein extraction buffer (10 mM Tris-HCl, pH 7.4; 5 mM […] (EDTA), 50 mM NaCl, 50 mM NaF, 1% Triton X-100, 20 μg/ml aprotinin, 2 mM Na3VO4, 1 mM phenylmethylsulfonyl fluoride] from 5× sample buffer [25 mM EDTA, 10% sodium dodecyl sulfate (SDS), 500 mM dithiothreitol (DTT), 50% sucrose, 500 mM Tris.HCl (pH=6.8), 0.5% bromophenol blue). The samples were boiled for 5 minutes and then centrifuged for 5 minutes at 13,000×g, 4° C. […] Signal intensity was determined by densitometry using NIH imageJ software^24, 44, 50.

activation of Erk = assay: Western blot of vitreous-induced Erk activation in RPEM cells; assay type: cell-based, human; conditions: idelalisib 10.0 μM (selective dose for PI3Kδ)
Protocol: as §1

RPEM cells [2] = assay: Cell migration (scratch) assay, RPEM cells with vitreous; assay type: cell-based, human; conditions: idelalisib 5 μM, 16 hours
Protocol: 3C. After the RPEM cells in a 12-well plate reached 90% confluence, the cultured wells were scratched with a 200 μl pipet tip and treated with RV supplemented with idelalisib (5 μM) or its vehicle. 16 hours later the pictures of the cells were taken and analyzed. A representative raw data of three experiments below the bar graphs is shown. Scale bar: 500 μm. RPEM cells in a 12-well plate were grown to near confluence, and then the wells with 90% confluent cells were scratched with 200 μl pipet tip. The cells were washed with PBS and treated with DMEM/F12 or RV (1:2 dilution in DMEM/F12) with or without idelalisib (5 μM). The scratched area was photographed to capture the initial width and photographed again 16 hours later. Analysis was conducted using Adobe Photoshop CS4 software. At least three independent experiments were performed.

RPEM cells [3] = assay: Collagen contraction assay, RPEM cells with vitreous; assay type: cell-based, human; conditions: idelalisib 5 μM, 48 hours
Protocol: 3D. The RPEM cells were re-suspended in 1.5 mg/ml of neutralized collagen I at a density of 1×10^6 cells/ml and seeded into wells of a 24-well plate. The solidified gels were overlaid with either DMEM/F12 alone (-), or RV supplemented with idelalisib (5 μM) or its vehicle as indicated. After 48 hours the gel diameter was measured and the gel area were calculated. A photograph of a representative experiment is shown at the bottom of the bar graphs. The mean±standard deviation (SD) of three independent experiments is shown; * denotes […]<0.05 using an unpaired t-test. RPEM cells were re-suspended in 1.5 mg/ml of neutralized collagen […], Fremont, Calif.) (pH 7.2) at ice at a density 1×10^6 cells/ml^24, 54. The mixture was transferred into wells of 24-well plates that had been preincubated overnight with 5 mg/ml bovine serum albumin/PBS. After the collagen had polymerized at 37° C. for 90 minutes, 0.5 ml DMEM/F12 or RV (1:2 dilution in DMEM/F12) with or without idelalisib (5 μM) was added. On day 3, the gel diameter was measured and the gel area was calculated using a formula 3.14×r^2, where r is the radius of the gel. At least three independent experiments were performed^24, 55.

activation of Akt = assay: VEGF-induced activation of Akt; assay type: cell-based
HRECs [4] = assay: VEGF-induced cell proliferation assay in HRECs; assay type: cell-based, human; conditions: VEGF 20 ng/ml, idelalisib 5 μM, 48 hours
Protocol: In a cell proliferation assay, HRECs cells were seeded into 24-well plates at a density of 30,000 cells/well in an endothelial growth medium kit. After attaching the plates, the cells were starved for growth factors for 7 hours, and then treated with VEGF (20 ng/ml) or VEGF plus idelalisib (5 μM). After 48 hours, the cells were trypsin detached and then counted in a hemocytometer under a light microscope as shown in FIG. 10A from three independent experiments^50, 61.

HRECs [5] = assay: VEGF-induced wound healing (migration) assay in HRECs; assay type: cell-based, human; conditions: VEGF 20 ng/ml, idelalisib 5 μM, 18 hours
Protocol: A wound healing assay was performed as previously described^62 with minor modifications. Once cells reached 90% confluence in 48-well plates, they were starved for growth factors for 7 hours. A wound was created by scraping the cell monolayer with a sterile pipette tip (200 μl). The cells were washed twice to remove detached cells and then treated with VEGF (20 ng/ml) or VEGF plus idelalisib (5 μM). The wound was photographed at 18 hours post wounding with an EVOS FL Auto microscope (Thermo Scientific) as shown in 8B from three independent experiments^61.

HRECs [6] = assay: VEGF-induced tube formation assay in HRECs; assay type: cell-based, human; conditions: idelalisib 5 μM
Protocol: A tube formation assay was performed as previously described^63. A collagen gel mixture was added to a 96-well plate (70 μl/well), which was then incubated for about 60 minutes at 37° C. to let the collagen gel polymerize. After polymerization, 4.0×10^4 HRECs were seeded in each well with their cultured medium maintained at a 37° C. incubator. This day was considered day 1. On day 2, the medium was removed and 150 μl of the gel mixture was added to each well supplemented with VEGF, or VEGF plus idelalisib (5 μM). On days 3, three different fields per well were randomly chosen and photographed using the EVOS FL Auto microscope. The results in FIG. 10B are representative of three independent experiments^61, 64, 65. Each bar graph indicates mean±standard deviation of three independent experiments. “*” denotes significant difference between the two compared groups. P<0.05 using an unpaired t-test.

SMILES: CC[C@H](Nc1ncnc2[nH]cnc12)c1nc2cccc(F)c2c(=O)n1-c1ccccc1 [idelalisib]
- inhibition of vitreous-stimulated phosphorylation of Akt at serine 473 ([1]; idelalisib 1.0 μM, 30 min pretreatment, rabbit vitreous 1:2 for 30 min): completely inhibited
- inhibition of PDGF-stimulated activation of Akt ([1]; idelalisib 10.0 μM (selective dose for PI3Kδ), PDGF-B 10 ng/ml): neither inhibited
- inhibition of vitreous-induced activation of Erk (activation of Erk): neither inhibited
- effect on vitreous-induced migration of RPEM cells (RPEM cells [2]): prevented
- effect on vitreous-induced collagen contraction of RPEM cells (RPEM cells [3]): completely blocked
- effect on VEGF-induced activation of Akt (activation of Akt): able to block
- effect on VEGF-stimulated cell proliferation of HRECs (HRECs [4]): completely blocked
- effect on VEGF-stimulated migration of HRECs (HRECs [5]): completely blocked
- effect on VEGF-stimulated tube formation of HRECs (HRECs [6]): completely blocked

From patent US20200179392A1, “Idelalisib for Treating Proliferative Vitreoretinopathy and Abnormal Intraocular Neovascularization” (priority 2016, published 2020)
